We go through eight molecules from PubChem BioAssay (NCI).

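Where inhibition never reached the appropriate level, the endpoint shown equals the highest concentration tested. Otherwise, values were interpolated linearly from a five-concentration, 48-hour dose response in 96-well plates. GI50 = concentration required for 50% inhibition of growth. TGI: total growth inhibition.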

Test systems include BT-549 breast; HOP-92 NSCLC; IGROV1 ovarian; NCI-H226 lung; NCI-H23 lung; NCI-H460 lung; NCI-H522 lung; SW-620 colon; T-47D breast; UACC-62 melanoma.
Assay in all cases: NCI anticancer screen, dose series, 48 h

With `COC(=O)c1ccc(-c2c(C#N)[n+](=O)c3cc(Cl)c(Cl)cc3n2[O-])cc1`, the GI50 with BT-549 breast was 16.8 µM; in the assay with HOP-92 NSCLC, 11.1 µM; in the assay with IGROV1 ovarian, 3.39 µM; in the assay on NCI-H226 lung, 25.7 µM; in the assay on NCI-H23 lung, 11.7 µM; in the assay with NCI-H460 lung it was 18.6 µM. For the same molecule, the GI50 with NCI-H522 lung is 4.12 µM; in the assay with SW-620 colon, 17.8 µM; in the assay on T-47D breast, 2.48 µM; with UACC-62 melanoma, 15.3 µM. The TGI was 34 µM in the assay on BT-549 breast; 34.9 µM in the assay on HOP-92 NSCLC; greater than 100 µM with IGROV1 ovarian; 70.6 µM in the assay with NCI-H226 lung; 29.3 µM with NCI-H23 lung; 44.7 µM in the assay on NCI-H460 lung. In addition, the TGI in the assay with NCI-H522 lung is greater than 100 µM; in the assay on SW-620 colon it was 45.4 µM; in the assay on T-47D breast it was 6.08 µM; in the assay with UACC-62 melanoma, 31.7 µM.
Regarding `COc1ccc(-c2nsc3c2NC(=O)CC3c2cccc(OC)c2)cc1` (stereo not given), the GI50 in the assay on BT-549 breast is 2.87 µM; in the assay with HOP-92 NSCLC, 2.31 µM; in the assay with IGROV1 ovarian, 2.18 µM; with NCI-H226 lung it was 17.5 µM; in the assay on NCI-H23 lung it was 2.59 µM; in the assay on NCI-H460 lung, 0.534 µM. For the same molecule, the GI50 in the assay with NCI-H522 lung is 0.702 µM; with SW-620 colon, 0.412 µM; in the assay on T-47D breast, 0.871 µM; with UACC-62 melanoma it was 0.865 µM. In addition, the TGI was greater than 100 µM in the assay with BT-549 breast; 43 µM in the assay on HOP-92 NSCLC; greater than 100 µM with IGROV1 ovarian; greater than 100 µM in the assay on NCI-H226 lung; greater than 100 µM in the assay on NCI-H23 lung; 71.8 µM with NCI-H460 lung. For the same molecule, the TGI with NCI-H522 lung was 5.28 µM; in the assay on SW-620 colon, greater than 100 µM; in the assay with T-47D breast it was greater than 100 µM; in the assay with UACC-62 melanoma, greater than 100 µM.
Take `O=C1CCC/C=C\C[C@H]2C=CC(=O)/C2=C/C[C@H](C/C=C\CC(F)(F)F)O1`: the GI50 was 0.292 µM with BT-549 breast; 1.85 µM with HOP-92 NSCLC; 0.596 µM with IGROV1 ovarian; 0.382 µM in the assay with NCI-H226 lung; 0.698 µM in the assay with NCI-H23 lung; 0.508 µM in the assay with NCI-H460 lung. The GI50 is 0.257 µM in the assay on NCI-H522 lung, 0.508 µM in the assay with SW-620 colon, 0.635 µM in the assay on T-47D breast and 0.28 µM in the assay on UACC-62 melanoma. Further, the TGI stood at 0.659 µM in the assay with BT-549 breast; 5.01 µM with HOP-92 NSCLC; 1.98 µM in the assay with IGROV1 ovarian; 1.01 µM with NCI-H226 lung; 3.67 µM in the assay with NCI-H23 lung; 1.73 µM in the assay with NCI-H460 lung. Besides, the TGI stood at 0.537 µM in the assay on NCI-H522 lung, 2.05 µM in the assay with SW-620 colon, 2.86 µM with T-47D breast and 0.765 µM in the assay with UACC-62 melanoma.
For the molecule `COc1ccccc1Nc1ncc(-c2ccccc2)o1`, the GI50 in the assay on BT-549 breast, in the assay with HOP-92 NSCLC, in the assay on IGROV1 ovarian, in the assay on NCI-H226 lung, in the assay with NCI-H23 lung and with NCI-H460 lung was greater than 25 µM in each case. The GI50 in the assay on NCI-H522 lung, in the assay with SW-620 colon, with T-47D breast and in the assay with UACC-62 melanoma was greater than 25 µM in each case. Moreover, the TGI with BT-549 breast, in the assay on HOP-92 NSCLC, in the assay with IGROV1 ovarian, in the assay on NCI-H226 lung, in the assay on NCI-H23 lung and with NCI-H460 lung was greater than 25 µM throughout. For the same molecule, the TGI in the assay with NCI-H522 lung, in the assay with SW-620 colon, in the assay with T-47D breast and in the assay on UACC-62 melanoma was greater than 25 µM throughout.
In the case of `COC(=O)c1ccc2c(c1)/C(=C\c1cc(Br)c(O)c(Br)c1)C(=O)N2`, the GI50 with BT-549 breast is 10.6 µM; in the assay on HOP-92 NSCLC, 2.45 µM; with IGROV1 ovarian it was 7.29 µM; in the assay on NCI-H226 lung, 14.6 µM; with NCI-H23 lung it was 7.22 µM; in the assay on NCI-H460 lung, 7.57 µM. The GI50 with NCI-H522 lung is 4.73 µM; in the assay with SW-620 colon, 8.4 µM; with T-47D breast, 8.72 µM; in the assay on UACC-62 melanoma, 2.77 µM. For the same molecule, the TGI in the assay on BT-549 breast is greater than 25 µM; in the assay on HOP-92 NSCLC, 17.4 µM; in the assay on IGROV1 ovarian, greater than 25 µM; in the assay with NCI-H226 lung it was greater than 25 µM; in the assay on NCI-H23 lung, greater than 25 µM; in the assay on NCI-H460 lung, greater than 25 µM. Besides, the TGI with NCI-H522 lung is 19.3 µM; with SW-620 colon, greater than 25 µM; with T-47D breast, greater than 25 µM; in the assay on UACC-62 melanoma, 8.8 µM.
Take `COc1cc(/C=C/C(=O)c2cccc(-n3cc(-c4ccc(Cl)cc4)[nH]c3=O)c2)ccc1O`: the GI50 with BT-549 breast is 2.89 µM; in the assay on HOP-92 NSCLC it was 1.52 µM; with IGROV1 ovarian it was 2 µM; in the assay with NCI-H226 lung, 6.38 µM; with NCI-H23 lung, 4.43 µM; with NCI-H460 lung, 6.43 µM. Also, the GI50 in the assay with NCI-H522 lung is 1.81 µM; with SW-620 colon it was 2.3 µM; with T-47D breast, 3.39 µM; in the assay on UACC-62 melanoma, 2.5 µM. Also, the TGI in the assay on BT-549 breast was found to be 10.9 µM; with HOP-92 NSCLC, 7.05 µM; in the assay on IGROV1 ovarian, 5.61 µM; in the assay with NCI-H226 lung, 19.5 µM; with NCI-H23 lung it was 24.4 µM; in the assay with NCI-H460 lung it was 21.7 µM. Further, the TGI in the assay on NCI-H522 lung stood at 11 µM; with SW-620 colon, 7.71 µM; in the assay with T-47D breast it was 17.8 µM; in the assay on UACC-62 melanoma, 9.59 µM.
Regarding `O=C(CNS(=O)(=O)Cc1ccccc1)NNc1ccccc1`, the TGI in the assay on BT-549 breast, with HOP-92 NSCLC, in the assay with IGROV1 ovarian, with NCI-H226 lung, with NCI-H23 lung and with NCI-H460 lung was greater than 100 µM in each case. Besides, the TGI was greater than 100 µM in the assay with NCI-H522 lung, greater than 100 µM with SW-620 colon, greater than 100 µM with T-47D breast and greater than 25.6 µM with UACC-62 melanoma.
As to `O=[N+]([O-])c1ccc(CI)cc1`, the GI50 is 3.54 µM in the assay on BT-549 breast; 4.25 µM with HOP-92 NSCLC; 4.31 µM with IGROV1 ovarian; 5.66 µM in the assay on NCI-H226 lung; 3.32 µM in the assay on NCI-H23 lung; 3.2 µM in the assay with NCI-H460 lung. Moreover, the GI50 is 1.41 µM with NCI-H522 lung, 0.803 µM in the assay on SW-620 colon, 2.21 µM in the assay with T-47D breast and 2.94 µM in the assay on UACC-62 melanoma. For the same molecule, the TGI in the assay on BT-549 breast was 10.8 µM; with HOP-92 NSCLC, 16.5 µM; with IGROV1 ovarian it was 14.8 µM; in the assay on NCI-H226 lung, 23.5 µM; with NCI-H23 lung it was 12.4 µM; in the assay on NCI-H460 lung, 10.5 µM. Further, the TGI with NCI-H522 lung came out at 3.02 µM; in the assay on SW-620 colon it was 3.22 µM; in the assay with T-47D breast, 5.17 µM; in the assay with UACC-62 melanoma, 12.2 µM.
